Where a name gives a salt, the structure may show the parent alone.
Columns and labels:
Conditions in all cases: incubation time: 27 h, anaerobic, 37 °C
[1] = test system: Ruminococcus gnavus DSM 108212; experiment: fold change of 2-Phenylethylamine concentration vs plate DMSO controls (fold change (ratio)); higher = more amine produced
[2] = test system: Klebsiella aerogenes DSM 30053; experiment: fold change of Cadaverine concentration vs plate DMSO controls (fold change (ratio)); higher = more amine produced
[3] = test system: Klebsiella aerogenes DSM 30053; experiment: growth (OD595) fold change vs plate DMSO controls (fold change (ratio)); higher = more growth
[4] = test system: Ruminococcus gnavus DSM 108212; experiment: as above
[5] = test system: Ruminococcus gnavus DSM 108212; experiment: fold change of Tryptamine concentration vs plate DMSO controls (fold change (ratio)); higher = more amine produced
[6] = test system: Klebsiella aerogenes DSM 30053; experiment: fold change of Putrescine concentration vs plate DMSO controls (fold change (ratio)); higher = more amine produced
[7] = test system: Klebsiella aerogenes DSM 30053; experiment: fold change of Histamine concentration vs plate DMSO controls (fold change (ratio)); higher = more amine produced
Experimental: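 Dose-response follow-up: bacteria (E. coli IAI1, K. aerogenes DSM 30053, C. sporogenes DSM 1664, R. gnavus DSM 108212) were grown anaerobically in mGAM at 37 °C for 27 h with compound at 0.6125-20 µM. Amines were measured in the whole culture by targeted LC-MS/MS. Metabolite fold change and OD595 fold change are relative to plate DMSO controls; n=2 biological replicates. OD fold changes are not clipped, so slightly negative values mean no growth.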

[8] = test system: Clostridium sporogenes DSM 1664; experiment: growth (OD595) fold change vs plate DMSO controls (fold change (ratio)); higher = more growth
[9] = test system: Clostridium sporogenes DSM 1664; experiment: fold change of Tryptamine concentration vs plate DMSO controls (fold change (ratio)); higher = more amine produced
Escherichia coli IAI1 [10] = experiment: fold change of Cadaverine concentration vs plate DMSO controls (fold change (ratio)); higher = more amine produced
Escherichia coli IAI1 [11] = experiment: growth (OD595) fold change vs plate DMSO controls (fold change (ratio)); higher = more growth
Escherichia coli IAI1 [12] = experiment: fold change of Putrescine concentration vs plate DMSO controls (fold change (ratio)); higher = more amine produced

N[C@@H]1CCCCN(c2c(F)cc3c(=O)c(C(=O)O)cn(C4CC4)c3c2Cl)C1 [Besifloxacin hydrochloride]
Conditions	fold change of 2-Phenylethylamine concentration, [1]	fold change of Cadaverine concentration, [2]	fold change of Histamine concentration, [7]	fold change of Putrescine concentration, [6]	fold change of Tryptamine concentration, [5]	growth, [3]	growth, [4]
0.6125 µM	1.11	0.955	1.18	1.02	1.36	1.32	1.01
1.25 µM	0.219	1.03	0.938	1.22	0.415	0.476	0.127
2.5 µM	0.487	1.02	0.188	1.26	0.746	0.277	0.193
5 µM	0.44	1.02	0.166	1.36	0.657	0.336	0.207
10 µM	0.321	1	0.185	1.43	0.451	0.358	0.22
20 µM	0.296	0.981	0.241	1.4	0.385	0.302	0.182

Oc1c(Cl)cc(Cl)cc1Sc1cc(Cl)cc(Cl)c1O [Bithionol]
Conditions	fold change of Tryptamine concentration, [9]	growth, [8]
0.6125 µM	1.09	1.23
1.25 µM	1.06	1.2
2.5 µM	1.07	0.906
5 µM	0.891	0.716
10 µM	0.0764	0.142
20 µM	0.0165	-0.0314

COC(=O)N/N=C/c1c[n+]([O-])c2ccccc2[n+]1[O-] [Carbadox]
Conditions	fold change of Tryptamine concentration, [9]	growth, [8]
0.6125 µM	0.852	1.09
1.25 µM	0.79	0.89
2.5 µM	0.724	0.999
5 µM	0.739	1.04
10 µM	0.774	0.742
20 µM	0.343	0.333

Cn1nnnc1SCC1=C(C(=O)O)N2C(=O)[C@@H](NC(=O)[C@H](O)c3ccccc3)[C@H]2SC1 [Cefamandole sodium salt]
Conditions	fold change of 2-Phenylethylamine concentration, [1]	fold change of Tryptamine concentration, [5]	growth, [4]
0.6125 µM	0.85	0.992	1.26
1.25 µM	0.767	0.847	1.29
2.5 µM	0.996	1.2	1.53
5 µM	0.492	0.675	0.889
10 µM	0.244	0.357	0.479
20 µM	0.178	0.263	0.481

CO[C@@]1(NC(=O)C2SC(=C(C(N)=O)C(=O)O)S2)C(=O)N2C(C(=O)O)=C(CSc3nnnn3C)CS[C@@H]21 (stereo not given in full) [Cefotetan]
Conditions	fold change of Cadaverine concentration, Escherichia coli IAI1 [10]	fold change of Putrescine concentration, Escherichia coli IAI1 [12]	growth, Escherichia coli IAI1 [11]
0.6125 µM	1.08	0.781	0.849
1.25 µM	1.22	1.01	0.812
2.5 µM	1.18	0.823	0.978
5 µM	2.07	2.04	0.728
10 µM	2.24	2.6	0.123
20 µM	2.29	1.48	0.0366

CN(C)CCn1nnnc1SCC1=C(C(=O)O)N2C(=O)[C@@H](NC(=O)Cc3csc(N)n3)[C@H]2SC1 [Cefotiam hydrochloride]
Conditions	fold change of Cadaverine concentration, Escherichia coli IAI1 [10]	fold change of Putrescine concentration, Escherichia coli IAI1 [12]	fold change of Tryptamine concentration, [9]	growth, Escherichia coli IAI1 [11]	growth, [8]
0.6125 µM	1.29	0.767	1.02	0.969	0.8
1.25 µM	1.27	0.89	0.833	1.03	0.293
2.5 µM	1.71	2.91	0.0314	0.906	0.273
5 µM	1.34	0.839	0.0234	-0.0152	-0.0402
10 µM	0.568	0.15	0.025	-0.055	-0.0341
20 µM	0.594	0.148	0.0225	-0.0576	-0.0328

Cc1cc(O)c(C(=O)N[C@@H](C(=O)N[C@@H]2C(=O)N3C(C(=O)O)=C(CSc4nnnn4C)CS[C@H]23)c2ccc(O)cc2)cn1 [Cefpiramide]
Conditions	fold change of 2-Phenylethylamine concentration, [1]	fold change of Cadaverine concentration, Escherichia coli IAI1 [10]	fold change of Putrescine concentration, Escherichia coli IAI1 [12]	fold change of Tryptamine concentration, [5]	growth, Escherichia coli IAI1 [11]	growth, [4]
0.6125 µM	0.656	1.44	0.827	0.773	0.836	1.28
1.25 µM	0.288	1.57	1.34	0.388	0.802	0.921
2.5 µM	0.158	1.97	3.19	0.226	0.44	0.902
5 µM	0.132	2.19	2.27	0.183	0.259	0.827
10 µM	0.107	2.26	1.28	0.154	0.00195	0.698
20 µM	0.131	2.23	0.966	0.147	-0.0159	0.575

O=C(N[C@H](CO)[C@H](O)c1ccc([N+](=O)[O-])cc1)C(Cl)Cl [Chloramphenicol]
Conditions	fold change of 2-Phenylethylamine concentration, [1]	fold change of Tryptamine concentration, [5]	growth, [4]
0.6125 µM	1	1.05	0.858
1.25 µM	0.839	0.822	0.8
2.5 µM	0.648	0.595	0.814
5 µM	0.601	0.577	0.765
10 µM	0.477	0.506	0.647
20 µM	0.174	0.175	0.204

Cc1ncc([N+](=O)[O-])n1C [Dimetridazole]
Conditions	fold change of Tryptamine concentration, [9]	growth, [8]
0.6125 µM	0.869	1.15
1.25 µM	0.772	1.1
2.5 µM	0.685	0.842
5 µM	0.184	1.1
10 µM	0.0282	-0.0122
20 µM	0.0226	-0.0151

C[C@@H](O)[C@H]1C(=O)N2C(C(=O)O)=C(S[C@@H]3CN[C@H](CNS(N)(=O)=O)C3)[C@H](C)[C@H]12 [Doripenem monohydrate]
Conditions	fold change of 2-Phenylethylamine concentration, [1]	fold change of Tryptamine concentration, [5]	growth, [4]
0.6125 µM	0.242	0.35	1.74
1.25 µM	0.158	0.206	0.893
2.5 µM	0.118	0.16	2.1
5 µM	0.119	0.15	0.381
10 µM	0.0974	0.121	0.355
20 µM	0.111	0.128	0.36

CS(=O)(=O)c1ccc([C@@H](O)[C@@H](CF)NC(=O)C(Cl)Cl)cc1 [Florfenicol]
Conditions	fold change of 2-Phenylethylamine concentration, [1]	fold change of Tryptamine concentration, [5]	fold change of Tryptamine concentration, [9]	growth, [4]	growth, [8]
0.6125 µM	0.644	0.662	0.86	0.826	1.14
1.25 µM	0.572	0.537	0.636	0.757	0.685
2.5 µM	0.509	0.516	0.0416	0.681	0.0218
5 µM	0.311	0.393	0.0331	0.386	-0.0331
10 µM	0.203	0.261	0.0302	0.252	-0.0315
20 µM	0.199	0.241	0.0273	0.0641	-0.0323

CC1CCc2cc(F)cc3c(=O)c(C(=O)O)cn1c23 (stereo not given) [Flumequine]
Conditions	fold change of Tryptamine concentration, [9]	growth, [8]
0.6125 µM	1.03	1.02
1.25 µM	1.06	1.04
2.5 µM	1.11	1
5 µM	0.996	0.948
10 µM	0.569	0.659
20 µM	0.0662	0.202

COc1c(N2C[C@@H]3CCCN[C@@H]3C2)c(F)cc2c(=O)c(C(=O)O)cn(C3CC3)c12 [Moxifloxacin]
Conditions	fold change of 2-Phenylethylamine concentration, [1]	fold change of Tryptamine concentration, [5]	growth, [4]
0.6125 µM	2.13	2.33	0.813
1.25 µM	2.4	2.83	0.562
2.5 µM	2.64	3.17	0.528
5 µM	2.66	3.27	0.491
10 µM	1.29	2	0.279
20 µM	0.274	0.511	0.119

OC[C@H]1O[C@@H](n2cnc3cncnc32)[C@H](O)[C@@H]1O [Nebularine]
Conditions	fold change of 2-Phenylethylamine concentration, [1]	fold change of Tryptamine concentration, [5]	growth, [4]
0.6125 µM	0.725	0.84	0.842
1.25 µM	0.65	0.755	0.629
2.5 µM	0.367	0.503	0.339
5 µM	0.321	0.464	0.336
10 µM	0.413	0.552	0.336
20 µM	0.434	0.585	0.333

CCn1cc(C(=O)O)c(=O)c2cc(F)c(N3CCNCC3)cc21 [Norfloxacin]
Conditions	fold change of 2-Phenylethylamine concentration, [1]	fold change of Cadaverine concentration, [2]	fold change of Histamine concentration, [7]	fold change of Putrescine concentration, [6]	fold change of Tryptamine concentration, [5]	fold change of Tryptamine concentration, [9]	growth, [3]	growth, [4]	growth, [8]
0.6125 µM	1.3	0.969	1.18	1.02	1.44	0.911	1.14	1.36	1.02
1.25 µM	1.98	1.02	0.775	1.21	2.07	0.589	0.479	0.823	0.736
2.5 µM	1.23	1	0.571	1.29	1.45	0.0459	0.363	0.713	0.00966
5 µM	1.2	1	0.19	1.31	1.32	0.035	0.384	0.628	0.0175
10 µM	1.25	1.01	0.262	1.37	1.41	0.0429	0.385	0.607	0.0423
20 µM	1.38	1	0.237	1.37	1.51	0.0345	0.256	0.425	0.00666

CO[C@H]1/C=C/O[C@@]2(C)Oc3c(C)c(O)c4c(O)c(c5c(nc6cc(C)ccn65)c4c3C2=O)NC(=O)/C(C)=C\C=C\[C@H](C)[C@H](O)[C@@H](C)[C@@H](O)[C@@H](C)[C@H](OC(C)=O)[C@@H]1C [Rifaximin]
Conditions	fold change of Tryptamine concentration, [9]	growth, [8]
0.6125 µM	0.601	1.05
1.25 µM	0.0574	0.257
2.5 µM	0.03	-0.0262
5 µM	0.0292	-0.0255
10 µM	0.0294	-0.0254
20 µM	0.0294	-0.0277

— the supplement of paper PMC12494721
